Reference: patent publication US11819556B2, “Stabilized compositions of radionuclides and uses thereof” (RayzeBio, Inc., priority 2021, dated 2023)
Read-outs that look alike come from different tables or passages of the source.

Settings: 0.03 mCi/ml, excipient 1 mg/ml in sodium acetate-acetic acid buffer pH 5.80, 25° C.
Procedure: After drying in an incubator at a temperature of 38° C., the radio-TLC conversion was analyzed at different time points with a radio-TLC reader (Eckert & Ziegler AR-2000) set at High Voltage=1000 (to ensure alpha detection) until the ratio between labeled product and the free Ac225 ion no longer change (typically after 6-8 hours of TLC separation to ensure equilibrium between Ac225 and daughter nuclides).
The formulations were buffered with sodium acetate-acetic acid 0.4 M solution to pH 5.80 (±0.10). […] Sodium L-Ascorbate/L-Ascorbic acid buffer was adjusted to pH 5.80 (±0.10). Water for Injection (WFI) with the same dilution without any excipient is used as the control formulation. The mixture was kept at room temperature (25° C.).

Percentage of ^225Ac present in [^225Ac]Ac-DOTA-TATE (24 hours after mixing) | Percentage of ^225Ac present in [^225Ac]Ac-DOTA-TATE (48 hours after mixing) | Structure (SMILES)
90.20% | 82.18% | O=C(O)CC(O)(CC(=O)O)C(=O)O [Citric Acid]
93.45% | 87.66% | N[C@H](CS)C(=O)O [D-Cysteine]
93.39% | 89.58% | CSCC[C@H](N)C(=O)O [L-Methionine]
91.19% | 87.41% | CC(=O)N[C@@H](CS)C(=O)O [N-Acetyl-L-Cysteine]
93.08% | 87.65% | O=C(O)c1ccccc1O [Salicylic Acid]
– | 92.21% | O=C1O[C@H]([C@@H](O)CO)C([O-])=C1O.[Na+] [Sodium Ascorbate, pH 5.8, Sodium Ascorbate]

More lines, now with the values behind:

Structure (SMILES) | Percentage of ^225Ac present in [^225Ac]Ac-DOTA-TATE (24 hours after mixing) | Percentage of ^225Ac present in [^225Ac]Ac-DOTA-TATE (48 hours after mixing)
O=C(O)CCCC[C@@H]1CCSS1 (racemic) [Lipoic Acid] | 92.97% | 87.93%
CCO [10% EtOH, EtOH] | 96.35% | 92.16%
O=C(O)CN(CCN(CC(=O)O)CC(=O)O)CCN(CC(=O)O)CC(=O)O [DTPA, Diethylenetriaminepentaacetic acid] | 95.77% | 91.38%
N[C@@H](CCC(=O)N[C@@H](CS)C(=O)NCC(=O)O)C(=O)O [L-Glutathione] | 91.18% | 85.56%
NCCCC[C@H](N)C(=O)O [L-Lysine] | 95.45% | 89.52%
Oc1ccccc1 [Phenol] | – | 87.88%
O=S([O-])O.[Na+] [Sodium Bisulfite] | 0% | –
